Experimental data published in patent US20230286958A1, “PLASMA KALLIKREIN INHIBITORS” (Merck Sharp & Dohme LLC, priority 2020, published 2023).

Key:
Human plasma kallikrein = Human plasma kallikrein (Homo sapiens (Human), UniProt P03952); experiment: Kallikrein Assay (fluorogenic substrate Acetyl-K-P-R-AFC); type: biochemical; settings: Plasma Kallikrein (PKal)
Method in brief: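 Ki is derived from IC50 with the Cheng-Prusoff equation, and IC50 from the inflection point of a four-parameter logistic curve. The rate of AFC release is read with 0.5 nM purified enzyme and […] substrate at room temperature or 37 °C.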

human Factor XIa = human Factor XIa (Homo sapiens (Human), UniProt P03951); experiment: Factor XIa Assay (fluorogenic substrate GPR-AFC); type: biochemical; settings: Factor XIa (FXIa)
Sequence of human Factor XIa (P03951 388-625 limits assumed): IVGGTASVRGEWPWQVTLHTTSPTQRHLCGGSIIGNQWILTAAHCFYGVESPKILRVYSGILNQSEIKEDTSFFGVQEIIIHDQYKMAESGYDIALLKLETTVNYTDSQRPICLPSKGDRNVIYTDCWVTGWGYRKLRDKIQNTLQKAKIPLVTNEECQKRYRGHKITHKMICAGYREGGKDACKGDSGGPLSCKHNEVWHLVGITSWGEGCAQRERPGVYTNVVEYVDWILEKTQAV
Sequence of human Factor XIa (P03951 19-387 partner limits assumed): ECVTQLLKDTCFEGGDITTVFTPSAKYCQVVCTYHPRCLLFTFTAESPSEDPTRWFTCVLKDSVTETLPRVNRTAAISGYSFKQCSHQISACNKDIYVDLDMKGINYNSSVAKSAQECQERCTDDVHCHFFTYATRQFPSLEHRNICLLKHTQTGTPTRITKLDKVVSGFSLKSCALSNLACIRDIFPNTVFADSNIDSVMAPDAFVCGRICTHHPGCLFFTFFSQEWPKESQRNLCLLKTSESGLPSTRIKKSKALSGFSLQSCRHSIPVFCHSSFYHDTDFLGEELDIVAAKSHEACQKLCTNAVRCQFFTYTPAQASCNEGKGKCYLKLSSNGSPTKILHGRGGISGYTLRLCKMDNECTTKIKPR

Sequence of Human plasma kallikrein (P03952 391-638): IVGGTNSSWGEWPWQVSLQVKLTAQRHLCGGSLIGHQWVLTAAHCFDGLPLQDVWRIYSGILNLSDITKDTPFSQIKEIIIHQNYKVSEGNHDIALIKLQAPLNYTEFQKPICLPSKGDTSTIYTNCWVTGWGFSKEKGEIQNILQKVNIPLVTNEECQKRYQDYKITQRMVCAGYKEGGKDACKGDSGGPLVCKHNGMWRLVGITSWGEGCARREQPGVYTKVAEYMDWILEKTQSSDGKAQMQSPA
Sequence of Human plasma kallikrein (P03952 20-390 partner): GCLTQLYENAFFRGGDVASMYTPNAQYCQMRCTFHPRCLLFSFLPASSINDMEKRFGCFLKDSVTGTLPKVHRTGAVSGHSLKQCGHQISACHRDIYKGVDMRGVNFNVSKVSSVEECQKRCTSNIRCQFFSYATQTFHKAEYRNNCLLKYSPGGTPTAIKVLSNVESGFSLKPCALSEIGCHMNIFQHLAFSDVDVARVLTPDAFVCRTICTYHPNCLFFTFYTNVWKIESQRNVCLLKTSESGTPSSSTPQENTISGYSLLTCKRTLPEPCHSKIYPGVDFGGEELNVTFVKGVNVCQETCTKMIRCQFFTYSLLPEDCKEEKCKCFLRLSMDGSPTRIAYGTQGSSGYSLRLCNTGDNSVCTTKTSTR

IC50 (Human plasma kallikrein) [nM]	IC50 (human Factor XIa) [nM]	SMILES
19.7	> 10000	Cc1ncc(-c2c(C#N)ccc(Cl)c2F)nc1C(=O)Nc1cnn(C(CO)c2cnc(N3C[C@H]4C[C@H]4C3=O)nc2)c1 (single isomer, unassigned) [Example 166, 6-(3-Chloro-6-cyano-2-fluorophenyl)-N-(1-((R or S)-2-hydroxy-1-(2-((1R,5S)-2-oxo-3-azabicyclo[3.1.0]hexan-3-yl)pyrimidin-5-yl)ethyl)-1H-pyrazol-4-yl)-3-methylpyrazine-2-carboxamide]
39	4300	CC(c1cnc(N2CC3CC3C2=O)nc1)n1cc(NC(=O)c2cncc(-c3c(OC(F)F)ccc(Cl)c3F)n2)cn1 (single isomer, unassigned) [Example 71, 6-(3-Chloro-6-(difluoromethoxy)-2-fluorophenyl)-N-(1-((S or R)-1-(2-((1R,5S or 1S,5R)-2-oxo-3-azabicyclo[3.1.0]hexan-3-yl)pyrimidin-5-yl)ethyl)-1H-pyrazol-4-yl)pyrazine-2-carboxamide]
0.6	139	Cc1cc(C(C)n2cc(NC(=O)c3nc(-c4c(OC(F)F)ccc(Cl)c4F)cnc3C)cn2)cnc1N1C[C@H]2C[C@H]2C1=O (single isomer, unassigned) [Example 132, 6-(3-Chloro-6-(difluoromethoxy)-2-fluorophenyl)-3-methyl-N-(1-((R or S)-1-(5-methyl-6-((1R,5S)-2-oxo-3-azabicyclo[3.1.0]hexan-3-yl)pyridin-3-yl)ethyl)-1H-pyrazol-4-yl)pyrazine-2-carboxamide]
1.7	2000	Cc1nc(C(C)n2cc(NC(=O)c3nc(-c4c(C(F)F)ccc(Cl)c4F)cnc3C(F)F)cn2)cnc1N1C[C@H]2C[C@H]2C1=O (single isomer, unassigned) [Example 100, 6-(3-Chloro-6-(difluoromethyl)-2-fluorophenyl)-3-(difluoromethyl)-N-(1-((S or R)-1-(6-methyl-5-((1R,5S)-2-oxo-3-azabicyclo[3.1.0]hexan-3-yl)pyrazin-2-yl)ethyl)-1H-pyrazol-4-yl)pyrazine-2-carboxamide]
4.3	561	Cc1cc(C(C)n2cc(NC(=O)c3nc(-c4c(C#N)ccc(Cl)c4F)cnc3C)cn2)nnc1N1C[C@H]2C[C@H]2C1=O (single isomer, unassigned) [Example 237, 6-(3-Chloro-6-cyano-2-fluorophenyl)-3-methyl-N-(1-((S or R)-1-(5-methyl-6-((1R,5S)-2-oxo-3-azabicyclo[3.1.0]hexan-3-yl)pyridazin-3-yl)ethyl)-1H-pyrazol-4-yl)pyrazine-2-carboxamide]
0.6	1630	Cc1cc(C(C)n2cc(NC(=O)c3cncc(-c4c(C(F)F)ccc(Cl)c4F)n3)cn2)cnc1N1C[C@H]2C[C@H]2C1=O (single isomer, unassigned) [Example 66, 6-(3-Chloro-6-(difluoromethyl)-2-fluorophenyl)-N-(1-((S or R)-1-(5-methyl-6-((1R,5S)-2-oxo-3-azabicyclo[3.1.0]hexan-3-yl)pyridin-3-yl)ethyl)-1H-pyrazol-4-yl)pyrazine-2-carboxamide]
1.8	255	Cc1cc([C@@H](C)n2cc(NC(=O)c3nc(-c4c(OC(F)F)ccc(Cl)c4F)cnc3C)cn2)nnc1N1C[C@H]2C[C@H]2C1=O [Example 40, 6-(3-Chloro-6-(difluoromethoxy)-2-fluorophenyl)-3-methyl-N-(1-((R)-1-(5-methyl-6-((1R,5S)-2-oxo-3-azabicyclo[3.1.0]hexan-3-yl)pyridazin-3-yl)ethyl)-1H-pyrazol-4-yl)pyrazine-2-carboxamide]
10.5	3650	Cc1c(C(CO)n2cc(NC(=O)c3cncc(-c4c(C(F)F)ccc(Cl)c4F)n3)cn2)cnc(N2C[C@H]3C[C@H]3C2=O)c1C (single isomer, unassigned) [Example 167, 6-(3-Chloro-6-(difluoromethyl)-2-fluorophenyl)-N-(1-([R or S)-1-(4,5-dimethyl-6-((1R,5S)-2-oxo-3-azabicyclo[3.1.0]hexan-3-yl)pyridin-3-yl)-2-hydroxyethyl)-1H-pyrazol-4-yl)pyrazine-2-carboxamide]
16.8	> 10000	Cc1nc(C(C)n2cc(NC(=O)c3cncc(-c4c(C(F)F)ccc(Cl)c4F)n3)cn2)ncc1N1C[C@H]2C[C@H]2C1=O (single isomer, unassigned) [Example 4, 6-(3-Chloro-6-(difluoromethyl)-2-fluorophenyl)-N-(1-((R or S)-1-(4-methyl-5-((1R,5S)-2-oxo-3-azabicyclo[3.1.0]hexan-3-yl)pyrimidin-2-yl)ethyl)-1H-pyrazol-4-yl)pyrazine-2-carboxamide]
26.7	> 10000	O=C(Nc1cnn(C(CO)c2cnc(N3CC4CC4C3=O)nc2)c1)c1cncc(-c2c(C(F)F)ccc(Cl)c2F)n1 (single isomer, unassigned) [Example 161, 6-(3-chloro-6-(difluoromethyl)-2-fluorophenyl)-N-(1-((S or R)-2-hydroxy-1-(2-((1S,5R or 1R,5S)-2-oxo-3-azabicyclo[3.1.0]hexan-3-yl)pyrimidin-5-yl)ethyl)-1H-pyrazol-4-yl)pyrazine-2-carboxamide]
7.1	8200	COc1c(N2C[C@H]3C[C@H]3C2=O)ncc(C(C)n2cc(NC(=O)c3cncc(-c4c(C(F)F)ccc(Cl)c4F)n3)cn2)c1C (single isomer, unassigned) [Example 155, 6-(3-Chloro-6-(difluoromethyl)-2-fluorophenyl)-N-(1-((S or R)-1-(5-methoxy-4-methyl-6-((1R,5S)-2-oxo-3-azabicyclo[3.1.0]hexan-3-yl)pyridin-3-yl)ethyl)-1H-pyrazol-4-yl)pyrazine-2-carboxamide]
14	3450	Cc1c(C(C)n2cc(NC(=O)c3cncc(-c4c(C(F)F)ccc(Cl)c4F)n3)cn2)nnc(N2C[C@H]3C[C@H]3C2=O)c1C (single isomer, unassigned) [Example 110, 6-(3-Chloro-6-(difluoromethyl)-2-fluorophenyl)-N-(1-((S or R)-1-(4,5-dimethyl-6-((1R,5S)-2-oxo-3-azabicyclo[3.1.0]hexan-3-yl)pyridazin-3-yl)ethyl)-1H-pyrazol-4-yl)pyrazine-2-carboxamide]
0.7	1740	Cc1nc(C(C)n2cc(NC(=O)c3cncc(-c4c(OC(F)F)ccc(Cl)c4F)n3)cn2)cnc1N1C[C@H]2C[C@H]2C1=O (single isomer, unassigned) [Example 17, 6-(3-Chloro-6-(difluoromethoxy)-2-fluorophenyl)-N-(1-((R or S)-1-(6-methyl-5-((1R,5S)-2-oxo-3-azabicyclo[3.1.0]hexan-3-yl)pyrazin-2-yl)ethyl)-1H-pyrazol-4-yl)pyrazine-2-carboxamide]
22.3	> 10000	CC(c1cnc(N2C[C@H]3C[C@H]3C2=O)c2c1OC(F)(F)O2)n1cc(NC(=O)c2cncc(-c3c(C(F)F)ccc(Cl)c3F)n2)cn1 (single isomer, unassigned) [Example 248, 6-(3-Chloro-6-(difluoromethyl)-2-fluorophenyl)-N-(1-((R or S)-1-(2,2-difluoro-4-((1R,5S)-2-oxo-3-azabicyclo[3.1.0]hexan-3-yl)-[1,3]dioxolo[4,5-c]pyridin-7-yl)ethyl)-1H-pyrazol-4-yl)pyrazine-2-carboxamide]
